Positions of bridges follow the written chain, without caps; N, C: chain ends. Non-standard residues stand in square brackets, D forms with d. Residues, ends and D or L forms follow the SMILES beside them. *: point of attachment. Ileψ(thiazoline)Cys = CC[C@H](C)[C@H](N)C1=N[C@H](C(=O)*)CS1; dOrn = NCCC[C@@H](N)C(=O)O
Test system: Bacillus subtilis ssp. shriramensis (MTCC-5674)
Experiment: Antibiotic sensitivity test (antibiotic discs on T3 agar); on Result: key: RES - Resistant; INT - Intermediate; SEN - Sensitive
Type: cell-based
Conditions: antibiotic disc on T3 agar, 30° C. for 24 hours; for Result: judged against Standards
Procedure: Different antibiotic discs were placed on the surface of the T3 agar plates labelled with the respective antibiotic. The plates were incubated at 30° C. for 24 hours.

NCC[C@H](O)C(=O)N[C@@H]1C[C@H](N)[C@@H](O[C@H]2O[C@H](CN)[C@@H](O)[C@H](O)[C@H]2O)[C@H](O)[C@H]1O[C@H]1O[C@H](CO)[C@@H](O)[C@H](N)[C@H]1O [Amikacin]
Zone: 15 mm
antibiotic sensitivity of the bacterium, in words: intermediate resistance
Result: INT

CC1(C)S[C@@H]2[C@H](NC(=O)[C@H](N)c3ccc(O)cc3)C(=O)N2[C@H]1C(=O)O [Amoxicillin]
Zone: 0 mm
antibiotic sensitivity of the bacterium, in words: resistant
Result: RES

CC1(C)S[C@@H]2[C@H](NC(=O)[C@H](N)c3ccccc3)C(=O)N2[C@H]1C(=O)O [Ampicillin]
Zone: 0 mm
antibiotic sensitivity of the bacterium, in words: resistant
Result: RES

CC[C@H]1OC(=O)[C@H](C)[C@@H](O[C@H]2C[C@@](C)(OC)[C@@H](O)[C@H](C)O2)[C@H](C)[C@@H](O[C@@H]2O[C@H](C)C[C@H](N(C)C)[C@H]2O)[C@](C)(O)C[C@@H](C)CN(C)[C@H](C)[C@@H](O)[C@]1(C)O [Azithromycin]
Zone: 10 mm
antibiotic sensitivity of the bacterium, in words: resistant
Result: RES

CC[C@H](C)[C@H](N)C1=N[C@H](C(=O)N[C@@H](CC(C)C)C(=O)N[C@H](CCC(=O)O)C(=O)N[C@H](C(=O)N[C@H]2CCCCNC(=O)[C@H](CC(N)=O)NC(=O)[C@@H](CC(=O)O)NC(=O)[C@H](Cc3cnc[nH]3)NC(=O)[C@@H](Cc3ccccc3)NC(=O)[C@H]([C@@H](C)CC)NC(=O)[C@@H](CCCN)NC2=O)[C@@H](C)CC)CS1 [Bacitracin] ({Ileψ(thiazoline)Cys}-L[dE]IK[dOrn]I[dF]H[dD]N; lactam 4-C)
Zone: 21 mm
antibiotic sensitivity of the bacterium, in words: sensitive
Result: SEN

CC1(C)S[C@@H]2[C@H](NC(=O)C(C(=O)O)c3ccccc3)C(=O)N2[C@H]1C(=O)O (stereo partly drawn) [Carbenicillin]
Zone: 15 mm
antibiotic sensitivity of the bacterium, in words: resistant
Result: RES

CO/N=C(\C(=O)N[C@@H]1C(=O)N2C(C(=O)O)=C(CSc3nc(=O)c(=O)[nH]n3C)CS[C@H]12)c1csc(N)n1 [Ceftriaxone]
Zone: 28 mm
antibiotic sensitivity of the bacterium, in words: sensitive
Result: SEN

CC(=O)OCC1=C(C(=O)O)N2C(=O)[C@@H](NC(=O)Cc3cccs3)[C@H]2SC1 [Cephalothin]
Zone: 40 mm
antibiotic sensitivity of the bacterium, in words: sensitive
Result: SEN

O=C(N[C@H](CO)[C@H](O)c1ccc([N+](=O)[O-])cc1)C(Cl)Cl [Chloramphenicol]
Zone: 25 mm
antibiotic sensitivity of the bacterium, in words: sensitive
Result: SEN

CCC[C@@H]1C[C@@H](C(=O)N[C@@H]([C@H]2O[C@H](SC)[C@H](O)[C@@H](O)[C@H]2O)[C@H](C)Cl)N(C)C1 [Clindamycin]
Zone: 10 mm

CCN1CCN(c2cc3c(cc2F)c(=O)c(C(=O)O)cn3C2CC2)CC1 [Enrofloxacin]
Zone: 41 mm
antibiotic sensitivity of the bacterium, in words: resistant
Result: RES

CC[C@H]1OC(=O)[C@H](C)[C@@H](O[C@H]2C[C@@](C)(OC)[C@@H](O)[C@H](C)O2)[C@H](C)[C@@H](O[C@@H]2O[C@H](C)C[C@H](N(C)C)[C@H]2O)[C@](C)(O)C[C@@H](C)C(=O)[C@H](C)[C@@H](O)[C@]1(C)O [Erythromycin]
Zone: 16 mm
antibiotic sensitivity of the bacterium, in words: intermediate resistance
Result: INT

NC[C@H]1O[C@H](O[C@H]2[C@H](O)[C@@H](O[C@H]3O[C@H](CO)[C@@H](O)[C@H](N)[C@H]3O)[C@H](N)C[C@@H]2N)[C@H](O)[C@@H](O)[C@@H]1O [Kanamycin]
Zone: 13 mm
Result: RES

CCC[C@@H]1C[C@@H](C(=O)N[C@@H]([C@H]2O[C@H](SC)[C@H](O)[C@@H](O)[C@H]2O)[C@@H](C)O)N(C)C1 [Lincomycin]
Zone: 12 mm
antibiotic sensitivity of the bacterium, in words: resistant
Result: RES

CO[C@@H]1[C@@H](OC(N)=O)[C@@H](O)[C@H](Oc2ccc3c(O)c(NC(=O)c4ccc(O)c(CC=C(C)C)c4)c(=O)oc3c2C)OC1(C)C [Novobiocin]
Zone: 24 mm
antibiotic sensitivity of the bacterium, in words: sensitive
Result: SEN

Cc1onc(-c2ccccc2)c1C(=O)N[C@@H]1C(=O)N2[C@@H]1SC(C)(C)[C@@H]2C(=O)O [Oxacillin]
Zone: 11 mm
antibiotic sensitivity of the bacterium, in words: intermediate resistance
Result: INT

[H]/N=C(/N)N[C@H]1[C@H](O)[C@@H](O)[C@H](O[C@@H]2O[C@@H](C)[C@](O)(C=O)[C@H]2O[C@@H]2O[C@@H](CO)[C@H](O)[C@@H](O)[C@@H]2NC)[C@@H](N/C(N)=N\[H])[C@@H]1O [Streptomycin]
Zone: 12 mm
antibiotic sensitivity of the bacterium, in words: intermediate resistance
Result: INT

Cc1noc(NS(=O)(=O)c2ccc(N)cc2)c1C [Sulfisoxazole]
Zone: 33 mm
antibiotic sensitivity of the bacterium, in words: sensitive
Result: SEN

NC[C@H]1O[C@H](O[C@H]2[C@H](O)[C@@H](O[C@H]3O[C@H](CO)[C@@H](O)[C@H](N)[C@H]3O)[C@H](N)C[C@@H]2N)[C@H](N)C[C@@H]1O [Tobramycin]
Zone: 15 mm
antibiotic sensitivity of the bacterium, in words: sensitive
Result: SEN

CN[C@H](CC(C)C)C(=O)N[C@H]1C(=O)N[C@@H](CC(N)=O)C(=O)N[C@H]2C(=O)N[C@H]3C(=O)N[C@H](C(=O)N[C@H](C(=O)O)c4cc(O)cc(O)c4-c4cc3ccc4O)[C@H](O)c3ccc(c(Cl)c3)Oc3cc2cc(c3O[C@@H]2O[C@H](CO)[C@@H](O)[C@H](O)[C@H]2O[C@H]2C[C@](C)(N)[C@H](O)[C@H](C)O2)Oc2ccc(cc2Cl)[C@H]1O [Vancomycin]
Zone: 20 mm
antibiotic sensitivity of the bacterium, in words: sensitive
Result: SEN

Gentamicin
Zone: 20 mm
antibiotic sensitivity of the bacterium, in words: sensitive
Result: SEN

Neomycin
Zone: 12 mm
antibiotic sensitivity of the bacterium, in words: resistant
Result: RES

Reference: patent US10327448B2, “Bacterium of Bacillus genus and uses thereof” (priority 2014, dated 2019)
